Reference: patent US11780845B2 (Relay Therapeutics, Inc., priority 2019, dated 2023)

Each compound was assayed against FGFR2 (Homo sapiens (Human), UniProt P21802) (assay: FGFR2 Biochemical Caliper Assay). Conditions: not given.
Description: Compounds of the present invention were also tested in a FGFR2 Biochemical Caliper Assay. Compounds were prepared in 10 mM DMSO solution and serially diluted into 11 concentrations by 3-fold dilution. […] 5 uL of ATP solution (100 uM) was added to start the reaction and the plate was incubated for 90 minutes, then 70 uL of stopping buffer (0.5M EDTA) was added to terminate the reaction. Each well was analyzed using EZ reader.

FGFR2, sequence (P21802 22-821): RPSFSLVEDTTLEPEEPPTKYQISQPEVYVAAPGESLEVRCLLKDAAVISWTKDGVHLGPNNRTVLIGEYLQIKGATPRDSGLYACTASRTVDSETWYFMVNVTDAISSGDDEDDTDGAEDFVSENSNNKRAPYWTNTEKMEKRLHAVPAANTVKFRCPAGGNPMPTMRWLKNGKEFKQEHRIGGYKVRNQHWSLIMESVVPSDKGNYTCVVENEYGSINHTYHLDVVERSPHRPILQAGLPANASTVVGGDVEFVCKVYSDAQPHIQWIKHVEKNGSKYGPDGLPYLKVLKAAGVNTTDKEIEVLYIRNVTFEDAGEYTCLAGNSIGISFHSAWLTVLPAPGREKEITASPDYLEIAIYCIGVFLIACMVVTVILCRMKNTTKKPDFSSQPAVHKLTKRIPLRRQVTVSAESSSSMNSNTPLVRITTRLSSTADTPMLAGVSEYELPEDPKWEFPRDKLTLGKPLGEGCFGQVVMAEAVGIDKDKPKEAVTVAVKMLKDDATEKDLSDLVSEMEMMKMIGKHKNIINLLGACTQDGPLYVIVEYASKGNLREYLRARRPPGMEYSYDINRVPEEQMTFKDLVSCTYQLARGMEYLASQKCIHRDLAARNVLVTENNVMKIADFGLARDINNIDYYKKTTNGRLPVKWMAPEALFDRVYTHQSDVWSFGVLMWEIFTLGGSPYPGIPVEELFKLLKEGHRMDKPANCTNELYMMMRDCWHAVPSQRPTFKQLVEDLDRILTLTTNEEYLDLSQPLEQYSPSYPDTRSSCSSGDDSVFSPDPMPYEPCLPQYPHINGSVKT

SMILES	IC50 [nM]
C=C(C)C(=O)Nc1ccc(-c2c(-c3ccc(S(=O)(=O)NC4CCC4)cc3)c3c(N)ncnc3n2C)cc1 [Example 311]	250 to 1000
C=CC(=O)Nc1ccc(-c2c(-c3ccc(Oc4ncccn4)c(C(F)(F)F)c3)c3c(N)ncnc3n2C)cc1 [Example 47]	< 100
C=C(C)C(=O)Nc1ccc(-c2c(-c3ccc(C(=O)NCC4CC4)cc3)c3c(N)ncnc3n2C)cc1 [Example 320]	< 100
C=C(C)C(=O)Nc1ccc(-c2c(-c3ccc(C(=O)N(C)Cc4cnn(C)c4)cc3)c3c(N)ncnc3n2C)cc1 [Example 294]	1000 to 100000
C=C(C)C(=O)Nc1ccc(-c2c(-c3ccc(C(=O)N4CCCC[C@H]4C)cc3)c3c(N)ncnc3n2C)c(F)c1 [Example 462]	< 100
C=CC(=O)Nc1ccc(-c2c(-c3ccc(Oc4ncccn4)c(N(C)C)c3)c3c(N)ncnc3n2C)cc1 [Example 49]	< 100
Cn1c(-c2ccc(NC(=O)CCl)cc2)c(-c2ccc(C(=O)N3CCCC3)cc2)c2c(N)ncnc21 [Example 558]	< 100
C=C(C)C(=O)Nc1ccc(-c2c(-c3ccc(C(=O)N(C)Cc4ncon4)cc3)c3c(N)ncnc3n2C)cc1 [Example 324]	1000 to 100000
C=CC(=O)Nc1ccc(-c2c(-c3ccc(Oc4ncccn4)c(OCC)c3)c3c(N)ncnc3n2C)cc1 [Example 51]	< 100
C=C(C)C(=O)Nc1ccc(-c2c(-c3ccc(S(=O)(=O)NC4CCCC4OC)cc3)c3c(N)ncnc3n2C)cc1 (centres unmarked) [Example 318]	1000 to 100000
C=CC(=O)Nc1ccc(-c2c(-c3ccc(ON4CCCC4)cc3)c3c(N)ncnc3n2C)c(C)c1 [Example 216]	< 100
C=C(C)C(=O)Nc1ccc(-c2c(-c3ccc(Oc4nccc(COC)n4)c(F)c3)c3c(N)ncnc3n2C)cc1 [Example 511]	< 100
C=C(C)C(=O)Nc1ccc(-c2c(-c3ccc(C(=O)NCC(C)(C)COC)cc3)c3c(N)ncnc3n2C)cc1 [Example 409]	< 100
C=CC(=O)Nc1ccc(-c2c(-c3ccc4c(c3)CCCN4C)c3c(N)ncnc3n2C)cc1 [Example 211]	< 100

Results, then the compound that gave them:

IC50 [nM]	SMILES
100 to 250	C=CC(=O)N1CCC(n2cc(-c3c(-c4ccc(Oc5ncccn5)cc4)c4c(N)ncnc4n3C)cn2)CC1 [Example 633]
1000 to 100000	CC#CC(=O)N1CCC(c2[nH]c3ncnc(N)c3c2-c2ccc(C(=O)N3CCCC3)cc2)C1 (centres unmarked) [Example 774]
1000 to 100000	C=CC(=O)N1CCC=C(c2c(-c3ccc(Oc4cccc(C)n4)c(OC)c3)c3c(N)ncnc3n2C)C1 [Example 657]
< 100	C=CC(=O)N1CCC(c2[nH]c3ncnc(N)c3c2-c2ccc(Oc3cccc(C)n3)cc2)C1 (centres unmarked) [Example 744]
1000 to 100000	C=C(C)C(=O)Nc1ccc(-c2c(-c3ccc(C(=O)N4CCCC4)cc3C#N)c3c(N)ncnc3n2C)cc1 [Example 563]
100 to 250	C=C(C)C(=O)N1CCC(n2cc(-c3c(-c4ccc(Oc5ccccc5)cc4)c4c(N)ncnc4n3C)cn2)CC1 [Example 652]
100 to 250	C=C(C)C(=O)Nc1ccc(-c2c(-c3ccc(Oc4nccc(C)n4)c(C(F)F)c3)c3c(N)ncnc3n2C)cc1 [Example 594]
1000 to 100000	C=CC(=O)N1CC[C@H](c2c(-c3ccc(Oc4ncccn4)cc3)c3c(N)ncnc3n2CCN2CCOCC2)C1 [Example 741]

These compounds were tested on SNU16 cells (assay: SNU16 Cancer Cell Line Proliferation Assay). Conditions: Homo sapiens; SNU-16 cells.
Assay type: cell-based
Procedure, shortened: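 SNU16 cells were seeded, held 24 h at 37 degrees, then dosed with an 11-point 3-fold dilution series prepared from a 10 mM DMSO stock. After 96 h incubation, viability was read by CellTiter Glo luminescence.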

SMILES	IC50 [nM]
C=C(C)C(=O)Nc1ccc(-c2c(-c3ccc(S(=O)(=O)NC4CCC4)cc3)c3c(N)ncnc3n2C)cc1 [Example 311]	250 to 1000
C=CC(=O)Nc1ccc(-c2c(-c3ccc(Oc4ncccn4)c(C(F)(F)F)c3)c3c(N)ncnc3n2C)cc1 [Example 47]	≤ 100
C=C(C)C(=O)Nc1ccc(-c2c(-c3ccc(C(=O)NCC4CC4)cc3)c3c(N)ncnc3n2C)cc1 [Example 320]	≤ 100
C=C(C)C(=O)Nc1ccc(-c2c(-c3ccc(C(=O)N(C)Cc4cnn(C)c4)cc3)c3c(N)ncnc3n2C)cc1 [Example 294]	250 to 1000
C=C(C)C(=O)Nc1ccc(-c2c(-c3ccc(C(=O)N4CCCC[C@H]4C)cc3)c3c(N)ncnc3n2C)c(F)c1 [Example 462]	≤ 100
C=CC(=O)Nc1ccc(-c2c(-c3ccc(Oc4ncccn4)c(N(C)C)c3)c3c(N)ncnc3n2C)cc1 [Example 49]	≤ 100
Cn1c(-c2ccc(NC(=O)CCl)cc2)c(-c2ccc(C(=O)N3CCCC3)cc2)c2c(N)ncnc21 [Example 558]	≤ 100
C=C(C)C(=O)Nc1ccc(-c2c(-c3ccc(C(=O)N(C)Cc4ncon4)cc3)c3c(N)ncnc3n2C)cc1 [Example 324]	250 to 1000
C=CC(=O)Nc1ccc(-c2c(-c3ccc(Oc4ncccn4)c(OCC)c3)c3c(N)ncnc3n2C)cc1 [Example 51]	≤ 100
C=C(C)C(=O)Nc1ccc(-c2c(-c3ccc(S(=O)(=O)NC4CCCC4OC)cc3)c3c(N)ncnc3n2C)cc1 (centres unmarked) [Example 318]	250 to 1000
C=CC(=O)Nc1ccc(-c2c(-c3ccc(ON4CCCC4)cc3)c3c(N)ncnc3n2C)c(C)c1 [Example 216]	≤ 100
C=C(C)C(=O)Nc1ccc(-c2c(-c3ccc(Oc4nccc(COC)n4)c(F)c3)c3c(N)ncnc3n2C)cc1 [Example 511]	≤ 100
C=C(C)C(=O)Nc1ccc(-c2c(-c3ccc(C(=O)NCC(C)(C)COC)cc3)c3c(N)ncnc3n2C)cc1 [Example 409]	≤ 100
C=CC(=O)Nc1ccc(-c2c(-c3ccc4c(c3)CCCN4C)c3c(N)ncnc3n2C)cc1 [Example 211]	≤ 100

Continued, values first:

IC50 [nM]	SMILES
100 to 250	C=CC(=O)N1CCC(n2cc(-c3c(-c4ccc(Oc5ncccn5)cc4)c4c(N)ncnc4n3C)cn2)CC1 [Example 633]
1000 to 100000	CC#CC(=O)N1CCC(c2[nH]c3ncnc(N)c3c2-c2ccc(C(=O)N3CCCC3)cc2)C1 (centres unmarked) [Example 774]
1000 to 100000	C=CC(=O)N1CCC=C(c2c(-c3ccc(Oc4cccc(C)n4)c(OC)c3)c3c(N)ncnc3n2C)C1 [Example 657]
≤ 100	C=CC(=O)N1CCC(c2[nH]c3ncnc(N)c3c2-c2ccc(Oc3cccc(C)n3)cc2)C1 (centres unmarked) [Example 744]
250 to 1000	C=C(C)C(=O)Nc1ccc(-c2c(-c3ccc(C(=O)N4CCCC4)cc3C#N)c3c(N)ncnc3n2C)cc1 [Example 563]
1000 to 100000	C=C(C)C(=O)N1CCC(n2cc(-c3c(-c4ccc(Oc5ccccc5)cc4)c4c(N)ncnc4n3C)cn2)CC1 [Example 652]
≤ 100	C=C(C)C(=O)Nc1ccc(-c2c(-c3ccc(Oc4nccc(C)n4)c(C(F)F)c3)c3c(N)ncnc3n2C)cc1 [Example 594]
1000 to 100000	C=CC(=O)N1CC[C@H](c2c(-c3ccc(Oc4ncccn4)cc3)c3c(N)ncnc3n2CCN2CCOCC2)C1 [Example 741]
